In US12478616B2, “PI3K inhibitors and uses thereof” (Sloan-Kettering Institute for Cancer Research, priority 2018, dated 2025):
Where two headings read alike, the source gives them in different places. Marks after values point to notes of the source that are not given here.

Tests used:
PI3Kα = PI3Kα (Homo sapiens (Human), UniProt P42336); test: PI3Kα kinase (biochemical) assay
[1] = Mouse pharmacokinetics, cassette dosed free drug; type: in vivo; details: for MRTiv / BA / MRTpo / Tmax / AUC / concentration at 5 min / clearance / Vd / Cmax: cassette; for concentration at 5 min: read-out: C5min; for clearance: read-out: Cltotal (converted); for Vd: read-out: VDss
Source text: (§1) Mouse PK data for Compound (14) (cassette dosing) for free drug (i.e., not nanoformulated) is tabulated in Table 2 using amorphous material. […] The corresponding rat PK data is tabulated in Table 3, where the results are consistent with mouse PK data.

[2] = test system: S6 ribosomal protein (S6) phosphorylation; details: single administration; free BYL719 oral, Fi(BYL719) 25 mg/kg; up to 24 hours; cited from earlier work
[3] = cited from earlier work
[4] = healthy mice, single dose, BYL719 25 or 50 mg/kg, Fi(BYL719) 25 mg/kg, cited from earlier work
[5] = 60 consecutive days; BYL719 50 mg/kg/day, Fi(BYL719) 50 mg/kg/week; cited from earlier work
[6] = test system: H22 patient-derived xenografts; details: Fi(BYL719) 25 mg/kg twice a week; free BYL719 7 mg/kg/day (50 mg/kg/week); cited from earlier work
[7] = rat, BYL719 dose 3.4 mg/kg IV, cited from earlier work
PI3K = PI3K cellular assays; type: cell-based; design: key: Inactive (−); Low (+); Intermediate (++); High (+++); details: for PI3K cellular activity: Table 1
[8] = Fucoidan nanoparticle formulation, drug load and particle size; type: physicochemical; details: Table 1
Experimental: FIG. 13. Generation of Compound (14) Nanoparticles [Fi(Compound (14))]. An aliquot of 0.1 mL of Compound (14) dissolved in dimethyl sulfoxide (25 mg/mL) was added drop-wise ([…]) to a 0.6 mL aqueous polysaccharide solution (15 mg/mL) containing IR820 (2.5 mg/mL) and 0.05 mM sodium bicarbonate. An aliquot of 0.1 mL of 8-arm PEG-amine dissolved in water (Creative Peg Works, 20 kD, 5 mg/mL) was added drop-wise to the mixture followed by centrifugation (20,000 g, 30 min). The nanoparticle pellet was re-suspended in 1 mL of sterile PBS. The suspension was sonicated for 10 s with a probe tip ultrasonicator at 40% intensity (Sonics inc). The nanoparticles were lyophilized in a 5% saline/sucrose solution.
Nanoformulated Compound (14) [Fi(Compound (14))] was typically prepared as illustrated in FIG. 13 by adding a DMSO solution dropwise to an aqueous polysaccharide solution containing the near-IR dye IR820. This was followed by the addition of an aqueous solution containing 20 kD, 8-arm PEG-amine, centrifugation and ultra-sonication yielding nanoparticles (<200 nm) with good batch consistency (FIG. 14). […]
Importantly, each of these 3 new derivatives shown in Table 8 were successfully encapsulated in fucoidan polysaccharide nanoparticles. Following nanoformulation, the drug loading in the nanoparticle for each analog was determined.

Cal-33 xenografts = details: Fi(BYL719) 25 mg/kg twice a week; free BYL719 7 mg/kg/day (50 mg/kg/week); cited from earlier work
[9] = Rat pharmacokinetics, cassette dosed free Compound (14); type: in vivo
Source text: as §1

ERK phosphorylation = details: cited from earlier work
[10] = test system: B16F10 melanoma lung metastases; details: FiDOX 1, 5 and 30 mg/kg; free doxorubicin 6 mg/kg; cited from earlier work
[11] = Table 4, pyridine-modified inhibitors, read-out: PI3Kα (IC50)
[12] = IV 0.1 mg/kg, 1 mL/kg (10-in-One)
[13] = in vivo, IV 0.1 mg/kg, 1 mL/kg (10-in-One), read-out: AUCiv
[14] = in vivo, IV 0.1 mg/kg, 1 mL/kg (10-in-One)
[15] = in vivo, PO 1 mg/kg, 5 mL/kg (5-in-One)
[16] = in vivo, PO 1 mg/kg, 5 mL/kg (5-in-One), read-out: AUCpo
[17] = Table 5, pyrone inhibitors, read-out: PI3Kα (IC50)
[18] = Table 6, proline-modified inhibitors, read-out: PI3Kα (IC50)

Chain of PI3Kα (P42336 whole entry): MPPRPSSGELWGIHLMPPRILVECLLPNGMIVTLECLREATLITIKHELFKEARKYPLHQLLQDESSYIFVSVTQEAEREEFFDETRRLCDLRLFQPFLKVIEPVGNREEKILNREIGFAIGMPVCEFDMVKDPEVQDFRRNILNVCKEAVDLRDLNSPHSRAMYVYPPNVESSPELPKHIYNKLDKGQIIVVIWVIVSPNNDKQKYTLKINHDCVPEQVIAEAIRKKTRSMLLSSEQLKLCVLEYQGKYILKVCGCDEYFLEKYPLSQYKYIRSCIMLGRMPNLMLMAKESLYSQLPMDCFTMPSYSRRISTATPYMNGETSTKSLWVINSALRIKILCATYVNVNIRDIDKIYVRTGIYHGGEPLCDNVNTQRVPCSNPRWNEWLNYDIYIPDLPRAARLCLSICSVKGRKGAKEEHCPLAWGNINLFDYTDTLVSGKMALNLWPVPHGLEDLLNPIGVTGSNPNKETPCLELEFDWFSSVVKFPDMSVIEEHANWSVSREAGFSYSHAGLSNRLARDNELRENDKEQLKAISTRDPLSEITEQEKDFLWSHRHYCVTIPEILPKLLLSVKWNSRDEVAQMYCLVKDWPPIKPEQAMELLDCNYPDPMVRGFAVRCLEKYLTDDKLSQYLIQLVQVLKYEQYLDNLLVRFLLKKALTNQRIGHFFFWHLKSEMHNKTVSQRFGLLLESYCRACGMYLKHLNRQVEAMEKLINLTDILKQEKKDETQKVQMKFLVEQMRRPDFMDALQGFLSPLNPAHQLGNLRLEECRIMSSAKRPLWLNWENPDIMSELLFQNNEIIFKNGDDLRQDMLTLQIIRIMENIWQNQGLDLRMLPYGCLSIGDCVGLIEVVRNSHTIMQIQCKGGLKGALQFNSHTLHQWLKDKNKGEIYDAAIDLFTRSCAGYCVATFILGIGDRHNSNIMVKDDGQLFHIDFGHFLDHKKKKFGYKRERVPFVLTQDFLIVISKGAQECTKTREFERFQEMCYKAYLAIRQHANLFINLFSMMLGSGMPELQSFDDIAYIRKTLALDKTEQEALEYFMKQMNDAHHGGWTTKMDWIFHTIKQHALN
Chain of PI3Kα (P27986 whole entry partner): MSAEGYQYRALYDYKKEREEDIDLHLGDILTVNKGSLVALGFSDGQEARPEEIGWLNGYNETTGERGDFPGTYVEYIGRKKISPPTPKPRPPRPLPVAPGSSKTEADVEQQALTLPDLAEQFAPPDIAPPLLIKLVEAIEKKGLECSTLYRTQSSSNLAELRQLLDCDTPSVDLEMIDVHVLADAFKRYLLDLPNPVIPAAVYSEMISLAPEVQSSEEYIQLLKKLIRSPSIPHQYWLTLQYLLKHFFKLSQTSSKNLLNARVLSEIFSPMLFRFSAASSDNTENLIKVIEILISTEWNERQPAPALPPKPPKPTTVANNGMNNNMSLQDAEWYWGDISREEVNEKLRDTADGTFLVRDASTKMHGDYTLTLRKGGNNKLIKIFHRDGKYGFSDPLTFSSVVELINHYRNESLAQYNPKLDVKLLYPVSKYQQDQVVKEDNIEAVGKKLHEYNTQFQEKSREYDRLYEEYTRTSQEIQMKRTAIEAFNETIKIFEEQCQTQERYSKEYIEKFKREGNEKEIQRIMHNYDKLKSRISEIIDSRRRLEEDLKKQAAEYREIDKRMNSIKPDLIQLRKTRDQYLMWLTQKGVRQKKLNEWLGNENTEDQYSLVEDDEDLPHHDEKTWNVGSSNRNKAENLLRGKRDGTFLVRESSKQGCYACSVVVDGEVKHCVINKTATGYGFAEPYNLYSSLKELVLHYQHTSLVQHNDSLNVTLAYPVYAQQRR

CCOC(=O)C(C)c1cc(-c2sc(NC(=O)N3CCC[C@H]3C(N)=O)nc2C)ccn1 (mixture of isomers) [Compound (6)]
IC50 (PI3Kα; [11]): < 100 nM

Cc1nc(NC(=O)N2CCC[C@H]2C(N)=O)sc1-c1ccnc(C(C)(C)C(F)(F)F)c1 [BYL719, alpelisib, reference compound]
MRTiv [1, 12]: 1.12 h | BA ([1]; IV 0.1 mg/kg, PO 1 mg/kg): 71.2% | MRTpo ([1]; PO 1 mg/kg, 5 mL/kg (5-in-One)): 2.12 h | Tmax ([1]; PO 1 mg/kg, 5 mL/kg (5-in-One)): 1 h | AUC [1, 13]: 73.9 ng·h/mL | concentration at 5 min [1, 14]: 56.4 ng/mL | clearance [1, 14]: 22.9 mL/min/kg | Vd [1, 14]: 1.54 L/kg | Cmax [1, 15]: 184 ng/mL | AUC [1, 16]: 526 ng·h/mL | inhibition of S6 phosphorylation in tumor [2]: strong albeit transient inhibition | observed half-life in humans [3]: 11.5 h | serum glucose levels [4]: spike | serum insulin levels ([4]; within 24 hours): spike | serum glucose and insulin levels after chronic treatment [5]: Significantly elevated | antitumor activity in H22 [6]: transient delay of tumor growth followed by acquired insensitivity to the treatment | BA ([7]; 15 mg/kg PO): 58% | Cltotal [7]: 10 mL/min/kg | MRTiv [7]: 2.9 h | VDss [7]: 1.9 L/kg | PI3K cellular activity (PI3K): (+++)*** | Nanoparticle drug load, % [8]: 22% | antitumor activity in Cal-33 (Cal-33 xenografts): no appreciable antitumor activity

Cc1nc(NC(=O)N2CCC[C@H]2C(N)=O)sc1-c1ccnc(C(C)(C)C(=O)OC2CCOC2=O)c1 (some centres unmarked) [Compound (1)]
IC50 (PI3Kα; [11]): < 100 nM

CCOC(=O)CC(C)(C)c1cc(-c2sc(NC(=O)N3CCC[C@H]3C(N)=O)nc2C)ccn1 [Compound (2)]
IC50 (PI3Kα; [11]): < 100 nM

Cc1nc(NC(=O)N2CCC[C@H]2C(N)=O)sc1-c1ccnc(C(C)(C)C(=O)OC(C)OC(=O)OC2CCCCC2)c1 (some centres unmarked) [Compound (3)]
IC50 (PI3Kα; [11]): < 100 nM

Cc1nc(NC(=O)N2CCC[C@H]2C(N)=O)sc1-c1ccnc(C(C)(C)C(=O)OCc2oc(=O)oc2C)c1 [Compound (4)]
IC50 (PI3Kα; [11]): < 100 nM

CCOC(=O)C1(c2cc(-c3sc(NC(=O)N4CCC[C@H]4C(N)=O)nc3C)ccn2)CC1 [Compound (5)]
IC50 (PI3Kα; [11]): < 100 nM

Cc1nc(NC(=O)N2CCC[C@H]2C(N)=O)sc1-c1ccnc(C(C)(C)C(=O)O)c1 [Compound (7)]
IC50 (PI3Kα; [11]): < 100 nM

COC(=O)C(C)(C)c1cc(-c2sc(NC(=O)N3CCC[C@H]3C(N)=O)nc2C)ccn1 [Compound (8)]
IC50 (PI3Kα; [11]): < 100 nM

COC(=O)c1cc(-c2sc(NC(=O)N3CCC[C@H]3C(N)=O)nc2C)ccn1 [Compound (9)]
IC50 (PI3Kα; [11]): < 100 nM

CCOC(=O)[C@@H]1CCN(C(=O)Nc2nc(C)c(-c3cc(C(C)(C)C(F)(F)F)oc(=O)c3)s2)[C@@H]1C(N)=O [Compound (10)]
PI3Kα inhibition in biochemical assay (in words) (PI3Kα): active | IC50 (PI3Kα; [17]): < 100 nM

CCOC(=O)[C@@H]1C[C@@H](C(N)=O)N(C(=O)Nc2nc(C)c(-c3cc(C(C)(C)C(F)(F)F)oc(=O)c3)s2)C1 [Compound (11)]
PI3Kα inhibition in biochemical assay (in words) (PI3Kα): active | IC50 (PI3Kα; [17]): < 100 nM

CCOC(=O)[C@H]1C[C@@H](C(N)=O)N(C(=O)Nc2nc(C)c(-c3cc(C(C)(C)C(F)(F)F)oc(=O)c3)s2)C1 [Compound (12)]
PI3Kα inhibition in biochemical assay (in words) (PI3Kα): active | IC50 (PI3Kα; [17]): < 100 nM

Cc1nc(NC(=O)N2CCC[C@H]2C(N)=O)sc1-c1cc(C(C)C)oc(=O)c1 [Compound (13)]
IC50 (PI3Kα; [17]): < 100 nM

Cc1nc(NC(=O)N2CCC[C@H]2C(N)=O)sc1-c1cc(C(C)(C)C(F)(F)F)oc(=O)c1 [Compound (14)]
mean residence time (in words) ([1]; cassette dosing, free drug): short mean residence time | oral bioavailability (in words) ([1]; cassette dosing, free drug): modest oral bioavailability | total clearance (in words) ([1]; cassette dosing, free drug): high total clearance | MRTiv [1, 12]: 0.31 h | BA ([1]; IV 0.1 mg/kg, PO 1 mg/kg): 13.5% | MRTpo ([1]; PO 1 mg/kg, 5 mL/kg (5-in-One)): 1.07 h | AUC [1, 13]: 17.8 ng·h/mL | concentration at 5 min [1, 14]: 66.4 ng/mL | clearance [1, 14]: 96.5 mL/min/kg | Vd [1, 14]: 1.78 L/kg | Cmax [1, 15]: 17.1 ng/mL | AUC [1, 16]: 24 ng·h/mL | Tmax ([1]; in vivo, PO 1 mg/kg, 5 mL/kg (5-in-One), read-out: Tmax): 0.42 h | efficacy in PI3K cellular assays (PI3K): (+++) | PI3K cellular activity (PI3K): (+++)*** | Nanoparticle drug load, % [8]: 22% | MRTiv [9, 12]: 0.42 h | BA ([9]; IV 0.1 mg/kg, PO 1 mg/kg): 5.9% | MRTpo ([9]; PO 1 mg/kg, 5 mL/kg (5-in-One)): 2.1 h | AUC [9, 13]: 45.1 ng·h/mL | concentration at 5 min ([9]; in vivo, IV 0.1 mg/kg, 1 mL/kg (10-in-One), read-out: C5min): 114 ng/mL | clearance ([9]; in vivo, IV 0.1 mg/kg, 1 mL/kg (10-in-One), read-out: Cltotal (converted)): 37 mL/min/kg | Vd ([9]; in vivo, IV 0.1 mg/kg, 1 mL/kg (10-in-One), read-out: VDss): 0.932 L/kg | Cmax [9, 15]: 11.8 ng/mL | Tmax [9, 15]: 0.5 h | AUC [9, 16]: 26.9 ng·h/mL | PI3Kα inhibition in biochemical assay (in words) (PI3Kα): potent inhibitor | IC50 (PI3Kα; Table 1, read-out: PI3Kα (IC50)): < 100 nM | IC50 (PI3Kα; [17]): < 100 nM | IC50 (PI3Kα; refers to Table 5, read-out: PI3Kα inhibitor in biochemical assays): < 100 nM

Cc1cc(-c2sc(NC(=O)N3CCC[C@H]3C(N)=O)nc2C)cc(=O)o1 [Compound (15)]
IC50 (PI3Kα; [17]): < 500 nM

CCOC(=O)[C@@H]1CCN(C(=O)Nc2nc(C)c(-c3ccnc(C(C)(C)C(F)(F)F)c3)s2)[C@@H]1C(N)=O [Compound (20)]
PI3Kα inhibition in biochemical assay (in words) (PI3Kα): good intrinsic PI3Kα potency | IC50 (PI3Kα; [18]): < 100 nM

CCOC(=O)C1CC(C(N)=O)N(C(=O)Nc2nc(C)c(-c3ccnc(C(C)(C)C(F)(F)F)c3)s2)C1 (centres unmarked) [Compound (21)]
PI3Kα inhibition in biochemical assay (in words) (PI3Kα): good intrinsic PI3Kα potency | IC50 (PI3Kα; [18]): < 100 nM

Cn1cnc2c(F)c(Nc3ccc(Br)cc3F)c(C(=O)NOCCO)cc21 [MEK162]
pERK inhibition in the skin (ERK phosphorylation; 4 and 24 hours): phosphorylation returned in both tissues after 24 hours | pERK inhibition in the tumor (ERK phosphorylation; after 24 hours): phosphorylation returned in both tissues after 24 hours

COc1cccc2c1C(=O)c1c(O)c3c(c(O)c1C2=O)C[C@@](O)(C(=O)CO)C[C@@H]3O[C@H]1C[C@H](N)[C@H](O)[C@H](C)O1 [doxorubicin]
tumor burden and survival after a single injection [10]: did not have a significant effect
